# According to patent EP0063525A1, “Dibenzazepine tetracyclic derivatives, process for their preparation and pharmaceutical compositions containing them” (CENTRE NATIONAL DE LA RECHERCHE SCIENTIFIQUE (CNRS), priority 1981, dated 1982):
# Where two headings read alike, the source gives them in different places.
# Assays:
# Souris [1] = assay: tetrabenazine ptosis; format: in vivo; details: for Ptosis 30 minutes / Ptosis 60 minutes / Ptosis 90 minutes / Ptosis 120 minutes: score 0-4 per eye
# Experimental: (§1) Ce test permet de révéler également une activité antidépressive avec l'avantage d'une lecture plus rapide qu'avec la réserpine.
# (§2) Les souris sont réparties par lots de 5.
# Le ptosis est noté avant l'injection de tétrabénazine, 30 minutes, 60 minutes, 90 minutes et 120 minutes après.
# On a adopté la notation suivante : • - 0 : pour un oeil ouvert, • - 1 : pour un oeil fermé au quart, • - 2 : pour un oeil fermé à moitié, • - 3 : pour un oeil fermé aux trois-quarts, • - 4 : pour un oeil fermé complètement.
# (§3) Le lot témoin comprend 20 souris.
# Souris [2] = assay: antireserpine activity: reserpine hypothermia; format: in vivo; details: réserpine 5 mg/kg i.p. 17 h before
# Summary of the method: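 Mice in groups of 4 given reserpine 5 mg/kg i.p.; 17 hours later rectal temperature taken by thermocouple and test substance or solvent given i.p. Temperature measured hourly for 4 hours. Reported as mean temperature changes at 1, 2, 3 and 4 hours, their 4-hour sum, and percent rise versus solvent controls.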
# Souris [3] = assay: tetrabenazine hypothermia; format: in vivo
# Experimental: as §1
# Les produits sont injectés 30 minutes avant l'administration de tétrabénazine.
# Les températures sont relevées aux temps : 0, 30 minutes, 60 minutes, 90 minutes et 120 minutes.
# as §2
# Les températures sont relevées avant l'injection de tétrabénazine, 30 minutes, 60 minutes, 90 minutes et 120 minutes après.
# as §3
# souris femelles = assay: acute toxicity in the mouse, intraperitoneal; format: in vivo; details: voie intrapéritonéale, dead mice of the group
# From the text: (§4) Les produits ont été administrés par voie intrapéritonéale à des souris femelles dont le poids variait de 18 à 30 g.
# (§5) Les animaux injectés ont été maintenus dans une salle thermostatée, nourris et abreuvés à volonté.
# (§6) La mortalité a été relevée à 1 heure, 4 heures, 24 heures et 48 heures.
# [4] = acute toxicity in the mouse, intraperitoneal; format: in vivo, Souris; details: mouse, in vivo, ip, voie intrapéritonéale; for LD50 at 48 h: souris femelles, read-out: DL 50; for mortality at 48 h: read-out: Mortalité %
# From the text: as §4, §5, §6
# chiens anesthésiés = assay: cardiovascular toxicity in the anaesthetised dog, slow perfusion; format: in vivo, Chien; details: chiens anesthésiés, perfusion lente
# Experimental: L'étude du composé 2 a été effectuée sur 7 chiens anesthésiés à des doses allant de 4 à 20 mg/kg en perfusion lente.
# [5] = product i.p. 200 mg/kg 30 min before tétrabénazine 32 mg/kg i.v.
# [6] = ip, 2 h, ptosis, product i.p. 50 mg/kg 30 min before tétrabénazine 32 mg/kg i.v., read-out: % de protection
# [7] = product i.p. 50 mg/kg 30 min before tétrabénazine 32 mg/kg i.v.
# [8] = ip, 4 h, product i.p. 50 mg/kg, read-out: % d'augmentation par rapport aux témoins
# [9] = ip, 2 h, hypothermie, product i.p. 50 mg/kg 30 min before tétrabénazine 32 mg/kg i.v., read-out: % de protection
# [10] = product i.p. 25 mg/kg 30 min before tétrabénazine 32 mg/kg i.v.
smiles,measurement,setting,value
CN(C)CCN1c2ccccc2-c2c(-c3ccccc3)nn(-c3ccccc3)c2-c2ccccc21 [compound 13],inhibition in vivo at 200 mg/kg,"Souris [1]; ip, 2 h, ptosis, product i.p. 200 mg/kg 30 min before tétrabénazine 32 mg/kg i.v., read-out: % de protection",14%
same,Ptosis Total,Souris [1]; [5],"25,9"
same,Ptosis 30 minutes,Souris [1]; [5],4
same,Ptosis 60 minutes,Souris [1]; [5],"6,8"
same,Ptosis 90 minutes,Souris [1]; [5],"7,6"
same,Ptosis 120 minutes,Souris [1]; [5],"7,5"
same,change in vivo at 200 mg/kg,"Souris [2]; ip, 4 h, product i.p. 200 mg/kg, read-out: % d'augmentation par rapport aux témoins",70%
same,variation de température T=1h,Souris [2]; product i.p. 200 mg/kg,"+1,9"
same,variation de température T= 2h,Souris [2]; product i.p. 200 mg/kg,+1
same,variation de température T=3h,Souris [2]; product i.p. 200 mg/kg,"+0,5"
same,variation de température T=4h,Souris [2]; product i.p. 200 mg/kg,0
same,inhibition in vivo at 200 mg/kg,"Souris [3]; ip, 2 h, hypothermie, product i.p. 200 mg/kg 30 min before tétrabénazine 32 mg/kg i.v., read-out: % de protection",15%
same,Température après tétrabénazine 30 minutes,Souris [3]; [5],"-3,4"
same,Température après tétrabénazine 60 minutes,Souris [3]; [5],"-1,9"
same,Température après tétrabénazine 90 minutes,Souris [3]; [5],"-1,1"
same,Température après tétrabénazine 120 minutes,Souris [3]; [5],"-0,9"
same,Température après tétrabénazine Total,Souris [3]; [5],"-7,3"
same,Mortalité en 1 heure,souris femelles; 50 mg/kg,0
same,Mortalité en 48 h.,souris femelles; 50 mg/kg,0
same,Mortalité en 1 heure,souris femelles; 100 mg/kg,0
same,Mortalité en 48 h.,souris femelles; 100 mg/kg,0
same,Mortalité en 1 heure,souris femelles; 250 mg/kg,0
same,Mortalité en 48 h.,souris femelles; 250 mg/kg,0
same,Mortalité en 1 heure,souris femelles; 400 mg/kg,3
same,Mortalité en 48 heures,souris femelles; 400 mg/kg,3
same,Mortalité en 1 heure,souris femelles; 750 mg/kg,2
same,Mortalité en 48 h.,souris femelles; 750 mg/kg,5
same,LD50 at 48 h,[4],350 mg/kg
same,mortality at 48 h,[4]; 50 mg/kg,0%
same,mortality at 48 h,[4]; 100 mg/kg,0%
same,mortality at 48 h,[4]; 250 mg/kg,0%
same,mortality at 48 h,[4]; 400 mg/kg,60%
same,mortality at 48 h,[4]; 750 mg/kg,100%
CN(C)CCCN1c2ccccc2-c2onc(-c3ccccc3)c2-c2ccccc21 [compound 18],inhibition in vivo at 50 mg/kg,Souris [1]; [6],24%
same,Ptosis Total,Souris [1]; [7],23
same,Ptosis 30 minutes,Souris [1]; [7],"3,6"
same,Ptosis 60 minutes,Souris [1]; [7],"5,8"
same,Ptosis 90 minutes,Souris [1]; [7],"6,4"
same,Ptosis 120 minutes,Souris [1]; [7],"7,2"
same,change in vivo at 50 mg/kg,Souris [2]; [8],25%
same,change in vivo at 150 mg/kg,"Souris [2]; ip, 4 h, product i.p. 150 mg/kg, read-out: % d'augmentation par rapport aux témoins",175%
same,inhibition in vivo at 50 mg/kg,Souris [3]; [9],8%
same,Température après tétrabénazine 30 minutes,Souris [3]; [7],"-3,1"
same,Température après tétrabénazine 60 minutes,Souris [3]; [7],"-1,8"
same,Température après tétrabénazine 90 minutes,Souris [3]; [7],"-1,9"
same,Température après tétrabénazine 120 minutes,Souris [3]; [7],"-1,1"
same,Température après tétrabénazine Total,Souris [3]; [7],"-7,9"
same,Mortalité en 1 heure,souris femelles; 50 mg/kg,0
same,Mortalité en 48 h.,souris femelles; 50 mg/kg,0
same,Mortalité en 1 heure,souris femelles; 100 mg/kg,0
same,Mortalité en 48 h.,souris femelles; 100 mg/kg,0
same,Mortalité en 1 heure,souris femelles; 150 mg/kg,0
same,Mortalité en 48 h.,souris femelles; 150 mg/kg,0
same,Mortalité en 1 heure,souris femelles; 200 mg/kg,5
same,Mortalité en 48 h.,souris femelles; 200 mg/kg,5
same,Mortalité en 1 heure,souris femelles; 250 mg/kg,4
same,Mortalité en 48 h.,souris femelles; 250 mg/kg,5
same,LD50 at 48 h,[4],225 mg/kg
same,mortality at 48 h,[4]; 50 mg/kg,0%
same,mortality at 48 h,[4]; 100 mg/kg,0%
same,mortality at 48 h,[4]; 150 mg/kg,0%
same,mortality at 48 h,[4]; 200 mg/kg,100%
same,mortality at 48 h,[4]; 250 mg/kg,100%
"CN(C)CCN1c2ccccc2C=Cc2ccccc21 [compound 20, (β-diméthylaminoéthyl)-5 dibenzo [b,f] 5H azépine, reference compound]",inhibition in vivo at 50 mg/kg,Souris [1]; [6],60%
same,Ptosis Total,Souris [1]; [7],"12,2"
same,Ptosis 30 minutes,Souris [1]; [7],"2,2"
same,Ptosis 60 minutes,Souris [1]; [7],"3,4"
same,Ptosis 90 minutes,Souris [1]; [7],"3,2"
same,Ptosis 120 minutes,Souris [1]; [7],"3,6"
same,change in vivo at 50 mg/kg,Souris [2]; [8],440%
same,Augmentation de température en 4 h,Souris [2]; product i.p. 50 mg/kg,"+10,8"
same,variation de température T= 2h,Souris [2]; product i.p. 50 mg/kg,"+2,7"
same,variation de température T=3h,Souris [2]; product i.p. 50 mg/kg,+2
same,variation de température T=4h,Souris [2]; product i.p. 50 mg/kg,+1
same,inhibition in vivo at 50 mg/kg,Souris [3]; [9],46%
same,Température après tétrabénazine 30 minutes,Souris [3]; [7],"-3,1"
same,Température après tétrabénazine 60 minutes,Souris [3]; [7],"-0,2"
same,Température après tétrabénazine 90 minutes,Souris [3]; [7],"-0,3"
same,Température après tétrabénazine 120 minutes,Souris [3]; [7],-1
same,Température après tétrabénazine Total,Souris [3]; [7],"-4,6"
same,Mortalité en 1 heure,souris femelles; 50 mg/kg,0
same,Mortalité en 48 h.,souris femelles; 50 mg/kg,0
same,Mortalité en 1 heure,souris femelles; 100 mg/kg,3
same,Mortalité en 48 h.,souris femelles; 100 mg/kg,3
same,Mortalité en 1 heure,souris femelles; 200 mg/kg,5
same,Mortalité en 48 h.,souris femelles; 200 mg/kg,5
same,LD50 at 48 h,[4],75 mg/kg
same,mortality at 48 h,[4]; 50 mg/kg,0%
same,mortality at 48 h,[4]; 100 mg/kg,60%
same,mortality at 48 h,[4]; 200 mg/kg,100%
"CC(CN(C)C)CN1c2ccccc2C=Cc2ccccc21 (stereo not drawn) [compound 22, (méthyl-2 diméthylamino-3 propyl)-5 dibenzo [b,f] 5H azépine, reference compound]",inhibition in vivo at 25 mg/kg,"Souris [1]; ip, 2 h, ptosis, product i.p. 25 mg/kg 30 min before tétrabénazine 32 mg/kg i.v., read-out: % de protection",11%
same,Ptosis Total,Souris [1]; [10],"26,8"
same,Ptosis 30 minutes,Souris [1]; [10],"5,6"
same,Ptosis 60 minutes,Souris [1]; [10],"6,8"
same,Ptosis 90 minutes,Souris [1]; [10],"6,8"
same,Ptosis 120 minutes,Souris [1]; [10],"7,6"
same,change in vivo at 25 mg/kg,"Souris [2]; ip, 4 h, product i.p. 25 mg/kg, read-out: % d'augmentation par rapport aux témoins",85%
same,variation de température T= 2h,Souris [2]; product i.p. 25 mg/kg,"+0,5"
same,variation de température T=3h,Souris [2]; product i.p. 25 mg/kg,+1
same,variation de température T=4h,Souris [2]; product i.p. 25 mg/kg,"+0,4"
same,inhibition in vivo at 25 mg/kg,"Souris [3]; ip, 2 h, hypothermie, product i.p. 25 mg/kg 30 min before tétrabénazine 32 mg/kg i.v., read-out: % de protection",50%
same,Température après tétrabénazine 30 minutes,Souris [3]; [10],"-3,5"
same,Température après tétrabénazine 60 minutes,Souris [3]; [10],"-0,1"
same,Température après tétrabénazine 90 minutes,Souris [3]; [10],"-0,6"
same,Température après tétrabénazine 120 minutes,Souris [3]; [10],"-0,1"
same,Température après tétrabénazine Total,Souris [3]; [10],"-4,3"
same,Mortalité en 1 heure,souris femelles; 25 mg/kg,0
same,Mortalité en 48 heures,souris femelles; 25 mg/kg,0
same,Mortalité en 1 heure,souris femelles; 50 mg/kg,0
same,Mortalité en 48 h.,souris femelles; 50 mg/kg,1
same,Mortalité en 1 heure,souris femelles; 100 mg/kg,4
same,Mortalité en 48 h.,souris femelles; 100 mg/kg,5
same,LD50 at 48 h,[4],75 mg/kg
same,mortality at 48 h,[4]; 25 mg/kg,0%
same,mortality at 48 h,[4]; 50 mg/kg,20%
same,mortality at 48 h,[4]; 100 mg/kg,100%
"CN(C)CCCN1c2ccccc2CCc2ccccc21 [imipramine, reference compound]","retour vers les valeurs de départ des paramètres enregistrés, dès l'arrêt de l'injection",chiens anesthésiés,n'a pas été constatée
